Reference: US9149416B1, “High deposition cleansing system” (WELLMARK INTERNATIONAL, priority 2008, dated 2015)

System: adult cat fleas
Assay: Residual flea efficacy trials on infested cats (Studies A-D)
Type: in vivo
Conditions: cleansing system 40 mg/kg vs topical at average 225 mg/kg
Method: The efficacy trials were performed using protocols that required the experimental group of infested cats to be compared with an untreated group of similarly infested animals.
The cleansing emulsion system formulation, containing 0.5% etofenprox was applied to the wet animals at the rate of 8 grams of cleansing system per kg of animal body weight. The 40% etofenprox topical was applied at the rate of 1 ml per cat for weights up to 5 lbs. (2.2 kg) and 2 ml per cat for those weighing greater than 5 lbs. (2.2 kg). The average rate of etofenprox applied to the cleansing system treated cats was 40 mg etofenprox per kg of body weight. The average rate of etofenprox applied to the topical treated cats was 225 mg per kg of body weight.
All test animals were infested with 100 unfed adult cat fleas prior to treatment. The cats were examined for the presence of live fleas at 24 to 48 hours after treatment. Residual data points were accomplished by infesting the treated animals at 14, 21 and 28 days after treatment. The animals were then examined for the presence of live fleas 48 hours after each infestation.

CCOc1ccc(C(C)(C)COCc2cccc(Oc3ccccc3)c2)cc1 [Etofenprox]
residual adult flea kill / residual efficacy compared with topical: residual efficacy results similar to 225 mg/kg BW rates required for topical formulations
